The values below come from article PMC6100113, “Involvement of CYP4F2 in the Metabolism of a Novel Monophosphate Ester Prodrug of Gemcitabine and Its Interaction Potential In Vitro” (Molecules : A Journal of Synthetic Chemistry and Natural …, 2018).

Each structure is given as a SMILES string.

Data set [1] in a line: Stability in rat plasma. It counts as in vitro ADME. The following applies: 1 μM, 37 °C. On the procedure:
For stability testing in plasma, the reaction was started with the addition of Compound-3 (1 µM). At specified time points, aliquots of 25 µL of the reaction mixtures were transferred into 100 μL ice-cold acetonitrile containing the internal standard. The samples were then centrifuged, and aliquots of 10 µL of the supernatants were transferred onto LC-MS/MS for the analysis of Compound-3 levels.

In data set [2] the target is T1, CYP4F2 (Homo sapiens, UniProt P78329).
T1 construct: purchased Corning Gentest
T1 sequence (P78329 5-520): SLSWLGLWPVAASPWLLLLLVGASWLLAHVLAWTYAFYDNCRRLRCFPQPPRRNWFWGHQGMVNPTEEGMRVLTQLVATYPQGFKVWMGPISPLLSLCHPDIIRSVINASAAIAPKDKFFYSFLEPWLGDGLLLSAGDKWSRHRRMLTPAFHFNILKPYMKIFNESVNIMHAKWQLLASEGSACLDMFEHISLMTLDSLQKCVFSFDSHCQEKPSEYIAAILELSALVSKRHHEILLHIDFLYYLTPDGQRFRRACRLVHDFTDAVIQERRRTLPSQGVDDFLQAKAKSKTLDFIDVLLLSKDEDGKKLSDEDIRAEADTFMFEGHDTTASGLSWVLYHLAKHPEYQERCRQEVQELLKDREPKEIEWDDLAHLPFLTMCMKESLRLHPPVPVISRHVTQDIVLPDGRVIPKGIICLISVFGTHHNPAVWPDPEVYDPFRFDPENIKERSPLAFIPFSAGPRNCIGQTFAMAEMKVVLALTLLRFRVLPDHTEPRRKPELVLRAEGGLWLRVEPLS
Put plainly: CYP4F2-mediated drug interaction (inhibition of CYP4F2). The class given is in vitro ADME. The following applies: substrate pafuramidine 1.5 μM, CYP4F2 10 nM, 5 min, DB775 formation; read-out: IC50, inhibition of CYP4F2 mediated metabolism of pafuramidine. On the procedure: CYP4F2-mediated drug interactions were examined in two separate setting: pafuramidine as the substrate and Compound-3 as the inhibitor; and Compound-3 as the substrate and pafuramidine as the inhibitor. The reaction system contained 10 nM CYP4F2, 100 mM phosphate buffer (pH 7.4), 1 mM NADPH, and substrate (pafuramidine 1.5 μM or Compound-3 1 μM). Inhibitor (Compound-3 or pafuramidine) concentrations ranged from 0 to 10,000 nM. The incubation time was 5 min for pafuramidine and 10 min for Compound-3. Incubation temperature was 37 °C. LC-MS/MS analysis was performed as described above for the levels of DB775 or M4 (carboxylic acid metabolite of Compound-3).

In data set [3] the test system is tumor. To be noted: in vitro and in vivo testing in the preclinical setting; cited from earlier work.
Data set [4] in a line: Metabolite identification by UPLC/Triple TOF MS in human intestinal microsomes. The class given is in vitro ADME. More on the design: key: √: metabolites were detected by high-resolution mass spectrometry. The following applies: Compound-3 10 μM, NADPH, 60 min, HRMS. On the procedure: For metabolite identification, a higher concentration of Compound-3 (10 μM) was incubated with liver microsomes (1 mg/mL) in the presence of NADPH (1 mM) and primary human hepatocytes at a density of 1 × 10^6 cell/mL. Samples were collected at 0 min and 60 min with the addition of ice-cold acetonitrile. After vortexing and centrifugation, the supernatant was transferred into a new tube and evaporated to dryness. The samples were then reconstituted in 100 μL of water and methanol (v/v, 9:1). An aliquot of 10 μL of reconstituted solution was injected into UPLC/Triple TOF 5600^+ MS for metabolite identification.
Identification of Compound-3 metabolites was carried out using Acquity UPLC/Triple TOF 5600^+ system. Chromatographic separation for Compound-3 and its metabolites were achieved by an Acquity UPLC HSS T3 column (100 × 2.1 mm i.d., […]; Waters Corp.) maintained at 40 °C. The mobile phase was a mixture of 0.02% formic acid in 5 mM ammonium acetate (A) and methanol (B). The gradient elution was started from 2% B and maintained for 4 min, then increased linearly to 75% B over the next 4 min and maintained for 8 min. […] The flow rate was 0.4 mL/min and the eluent was monitored by UV detection at 280 nm.
For mass detection, a Triple TOF 5600^+ mass spectrometer (AB Sciex, Framingham, MA, USA) was operated in positive ion electrospray (ES-positive) mode with the source temperature at 500 °C and scan range from m/z 100 to 1000 Da. Other parameters were set as follows: ion spray voltage, 5500 V; decluttering potential, 80 V; curtain gas, 40 psi; ion source gas 1, 55 psi; and ion source gas 2, 50 psi. Collision energies of 25 and 65 eV were used for TOF MS and product ion scans, respectively, and a collision energy spread of 20 was used in the MS/MS analysis. Information-dependent acquisition (IDA), together with real-time multiple mass defect filter, was used to trigger acquisition of MS/MS spectra.

Data set [5] concerns the target T1, CYP4F2. Kind of data set: Reaction phenotyping with recombinant CYP4F2. It counts as in vitro ADME. The following applies: recombinant CYP4F2 50 nM, 1 μM, NADPH, after 30 min incubation. On the procedure:
Compound-3 was incubated separately with human cDNA-expressed cytochrome P450s (CYP1A2, CYP2B6, CYP2C8, CYP2C9, CYP2C19, CYP2D6, CYP3A4, CYP4A11, CYP4F2 and CYP4F3). The incubation mixtures contained individual CYP isoenzymes (50 nM), potassium phosphate buffer (100 mM, pH 7.4), NADPH (1 mM), and Compound-3 (1 µM). The final volume of the incubation mixture was 50 µL. Before the start of the incubation, reaction mixtures were warmed up at 37 °C for 10 min. The reaction was initiated with the addition of NADPH and the incubations were performed at 37 °C in a water bath. […] Control samples without NADPH but substrates were included. The samples were then centrifuged and aliquots of 10 μL of the supernatants were transferred onto LC-MS/MS for the analysis of Compound-3 and M4 (carboxylic acid) levels.
The following are available online. Figure S1. Gemcitabine Formation from Compound-3 Hydrolysis as a function of alkaline phosphatase protein concentrations. Compound-3 (1 μM) was incubated with alkaline phosphatase concentrations ranging from 0.01–0.2 mg/mL at 37 °C (n = 3). Figure S2. Metabolites of Compound-3 in human recombinant CYP4F2. Compound-3 (1 μM) was incubated with human recombinant CYP4F2 (50 nM) in the presence of NADPH at 37 °C (n = 3).

Take `CCCCCCCCCCCCCCCCCCOCCOP(=O)(O)OCC1OC(n2ccc(N)nc2=O)C(F)(F)C1O` (centres unmarked) [Compound-3]: in data set [1], the disappearance in plasma result is given as “did not display noticeable disappearance”. The IC50 in data set [2] came to 100 nM. For the same molecule, in data set [3], the “antitumor activity as compared to gemcitabine itself and LY2334737” value is reported as “enhanced antitumor activity”. In addition, the “detected in matrix HIM” value in data set [4] is on record as “√”. For the same molecule, in data set [5], the “disappearance of Compound-3 in the presence of CYP isozyme” value was “barely detectable”.
